Laboratory results: patent US20090311237A1, “Combination therapy using a soluble hyaluronidase and a bisphosphonate” (priority 2008, published 2009)

Assays:
Sprague Dawley rats [1] = test: Semi-quantitative histopathology of skin at injection site after ID zoledronic acid with or without rHuPH20; format: in vivo; parameters: key: —: Dash indicates no incidence of the indicated observation; conditions: rat ID; ZA 0.4 mg/mL; rHuPH20 0 U/ml; 4 days
Method: (§1) Nine to ten week old female Sprague Dawley rats, having approximate body weight of 200-250 grams, were employed for the study. One day prior to injection, rats were shaved and hair on the back and flank area were removed by Nair® cream (exposure less than 1 min to depilation cream) followed by deep wash with warm tap water. On the day of dosing, all rats were injected intradermally in flank area (one or two injection spots per side), with 0.1 or 0.2 mL as indicated of zoledronic acid solution, with or without rHuPH20, at each corresponding concentration as shown in study design table. Injection site appearance was observed and quantified by blind assessment each day following the injection until the end of the study, at which time animals were sacrificed and the skin around the dosing area as well as a part of the skin that was not effected by the dosing were collected and fixed in 10% neutral buffered formalin (NBF) and further embedded in paraffin, 5 μm sections were cut for H&E stain and histopathology evaluation.
Lesion area was calculated by the following formula: W×L×¼π. Quantitative results were analyzed using one-way analysis of variance (ANOVA) method, followed by Dunnett's comparison method (Prizm 4 program). […] Histopathologic findings were characterized by semi-quantitative analysis of necrosis and infiltration in the skin tissue. […]

Sprague Dawley rats [2] = test: Injection site reactions (gross ISR incidence, lesion area) after intradermal injection of zoledronic acid with or without rHuPH20; format: in vivo, rat; conditions: for AUC (accumulated ISR area over 6 days) / Peak lesion area: rat ID 0.1 mL, rHuPH20 0 U/mL
Method: A rodent model of local injection site injury caused by ZA injection was employed for the study. […] Injection into the dermis facilitates external visualization and assessment of the irritant.
as §1
Lesion area was calculated by the following formula: W×L×¼π. Quantitative results were analyzed using one-way analysis of variance (ANOVA) method, followed by Dunnett's comparison method (Prizm 4 program). The probability values of less than 0.05 (two-tailed) were used as the critical level of significance for all tests. Groups with a sample size of two were excluded from analysis. If the sample size was 2 for the control group, there were no statistical analyses at that interval for any of the groups. Histopathologic findings were characterized by semi-quantitative analysis of necrosis and infiltration in the skin tissue. The incidences of each finding were compared with control groups by Chi-square test.
Prior to ZA intradermal injection, rats were randomized by body weight into 7 groups of 1 or 2 rats per group (Table 2). Rats were injected with either 0.1 mL or 0.2 mL of each corresponding concentration intradermally at two separate locations on each shaved flank side for a total of 4 injections for each animal. Injection sites were observed daily post-injection for four days. Pictures of injection site reaction (ISR) area were captured by digital camera and lesion area was scored for induration, erythema, or ulceration. Two perpendicular diameters (width & length) of injection site lesion were measured by microcaliper. The lesion area was defined as the area bounded by the outer edge of the erythemic zone. Upon completion of the study, the animals were euthanized and skin at the injection site and from an untreated area of the back of the rat were excised, mounted flat onto a piece of cardboard, and placed in 10% NBF.
A series of experiments were conducted in which various dosing concentrations of rHuPH20 were tested for the ability to reduce acute injection site lesions. Prior to ZA intra-dermal injection, rats were randomized by body weight into 11 groups of 2 rats per group. Rats were injected intradermally with 0.1 mL of each co-formulated solution as shown in Table 5 and observed daily with ISR development assessed as in Section B. Four days after injection, rats were sacrificed and the skin at the injection site as well as untreated skin from the back was excised, mounted flat onto a piece of cardboard, and placed in 10% NBF.
Prior to ZA intra-dermal injection, rats were randomized by body weight into 6 groups of 3 rats per group (Table 6). Rats were intradermally injected with 0.1 mL of each corresponding co-formulated solution at two separate locations, two on each shaved flank side, for a total of 4 injections for each animal. Injection sites were observed daily with ISR development assessed as in Section B for 6 days. […]

With `O=P(O)(O)C(O)(Cn1ccnc1)P(=O)(O)O` [ZA, 1-hydroxy-2-(1H-imidazol-1-yl)ethylidene-1,1-bisphosphonic acid] the “Necrosis: Superficial dermis” value (Sprague Dawley rats [1]) was “—”, the “AUC (accumulated ISR area over 6 days)” value (Sprague Dawley rats [2]; ZA 0.05 mg/mL) was 110.8 ± 5.6 mm^2 · day and the Peak lesion area (Sprague Dawley rats [2]; ZA 0.05 mg/mL) was 28.8 ± 1.8 mm^2. For the same compound, the “AUC (accumulated ISR area over 6 days)” value (Sprague Dawley rats [2]; ZA 0.1 mg/mL) was 108.3 ± 6.9 mm^2 · day, the Peak lesion area (Sprague Dawley rats [2]; ZA 0.1 mg/mL) was 32.3 ± 2.7 mm^2 and the “AUC (accumulated ISR area over 6 days)” value (Sprague Dawley rats [2]; ZA 0.4 mg/mL) was 226.5 ± 9.1 mm^2 · day. For the same compound, the Peak lesion area (Sprague Dawley rats [2]; ZA 0.4 mg/mL) was 62.9 ± 5.1 mm^2 and the erythema area (Sprague Dawley rats [2]; rat ID, ZA alone 0.05-0.2 mg/ml) was about 35 mm^2.
